Consider seven compounds from ChEMBL document CHEMBL1201862, “PubChem BioAssay data set” (2004).

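Each compound was tested at five concentrations against cells in 96-well plates for 48 hours. Here, GI50 denotes the concentration required for 50% inhibition of growth.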 Calls of active or inactive are those of the source. No stated cut-off is given here; in the data, active = GI50 up to about 1.1 µM and inactive = higher. Some results are limits rather than exact numbers.

What all share (test): NCI tumour cell line growth inhibition, 48 h
For assay [1], the system named is 786-0.
In assay [2] the test system is A549.
In assay [3] the test system is BT-549.
The subject of assay [4] is COLO 205.
In assay [5] the test system is EKVX.
Assay [6] concerns HOP-62.
Assay [7] has as its system K562.
Assay [8] concerns MDA-N.
Assay [9] relates to NCI-H23.
Assay [10] relates to NCI-H460.
For assay [11], the system named is NCI/ADR-RES.
Assay [12] has as its system OVCAR-3.
For assay [13], the system named is OVCAR-8.
Assay [14] relates to PC-3.
In assay [15] the test system is SF-539.
Assay [16] relates to SK-MEL-28.
Assay [17] relates to SK-MEL-2.
Assay [18] concerns SK-OV-3.
Assay [19] has as its system SNB-75.
In assay [20] the test system is UACC-257.

In the case of `CN(C)CCCN1c2ccc3ccccc3c2Sc2cccc(Cl)c21`, the GI50 was 2.99 µM (inactive) in assay [1]; 5.81 µM (inactive) in assay [2]; 15.1 µM (inactive) in [3]; 1.85 µM (inactive) in assay [4]; 2.38 µM (inactive) in assay [5]; 2.85 µM (inactive) in [6]. The GI50 is 1.73 µM (inactive) in assay [7]; 2.38 µM (inactive) in assay [8]; 10.6 µM (inactive) in assay [9]; 1.77 µM (inactive) in assay [10]; 5.56 µM (inactive) in assay [11]; 2.89 µM (inactive) in [12]. Besides, the GI50 is 4.33 µM (inactive) in [13]; 3.01 µM (inactive) in assay [14]; 4.32 µM (inactive) in assay [15]; 2.18 µM (inactive) in assay [16]; 1.99 µM (inactive) in [17]; 11.4 µM (inactive) in assay [18]. Also, the figures for the GI50 in [19] and in assay [20] were 3.6 µM (inactive) and 1.69 µM (inactive), respectively.

With `Nc1c(S(=O)(=O)O)cc(Nc2cccc(S(=O)(=O)/C=C/S(=O)(=O)O)c2)c2c1C(=O)c1ccccc1C2=O`, the GI50 in assay [1], in assay [2], in assay [3], in assay [4], in assay [5] and in [6] was > 100 µM (inactive) in each case. Also, the GI50 in assay [7], in assay [8], in assay [9], in assay [10], in assay [11] and in [12] was > 100 µM (inactive) each time. For the same compound, the GI50 in [13], in assay [14], in assay [15], in assay [16], in [17] and in [18] was > 100 µM (inactive) in each case. In addition, the GI50 in [19] was 34.7 µM (inactive); in [20], > 100 µM (inactive).

For the compound `CCN(CC)CCSc1nc2c(c(=N)n1-c1ccccc1)c(=S)n(-c1ccccc1)c(=S)n2-c1ccccc1`, the GI50 in assay [1] was 0.441 µM (active); in assay [2], 2.08 µM (inactive); in assay [3], 2.23 µM (inactive); in assay [4] it was 1.66 µM (inactive); in [5], 2.54 µM (inactive); in assay [6], 2.85 µM (inactive). The GI50 in [7] was 0.601 µM (active); in assay [8] it was 2.36 µM (inactive); in [9] it was 3.69 µM (inactive); in assay [10] it was 1.91 µM (inactive); in [11], 5.36 µM (inactive); in assay [12] it was 1.64 µM (inactive). Moreover, the GI50 was 1.71 µM (inactive) in assay [13]; 1.8 µM (inactive) in assay [14]; 4.45 µM (inactive) in [15]; 3.62 µM (inactive) in assay [16]; 7.55 µM (inactive) in assay [17]; 6.65 µM (inactive) in [18]. Besides, the GI50 is 2.19 µM (inactive) in assay [19] and 1.72 µM (inactive) in assay [20].

`CC1(C)C=C(S(=O)(=O)c2ccccc2)Oc2ccccc2O1`: the GI50 is 44.6 µM (inactive) in assay [1]; 41 µM (inactive) in assay [2]; 42.7 µM (inactive) in assay [3]; 18.8 µM (inactive) in assay [4]; 23.1 µM (inactive) in assay [5]; > 100 µM (inactive) in [6]. In addition, the GI50 was 29.8 µM (inactive) in assay [7]; 35.7 µM (inactive) in [8]; 41.3 µM (inactive) in [9]; 35.2 µM (inactive) in assay [10]; 52.1 µM (inactive) in assay [11]; 50.4 µM (inactive) in assay [12]. Moreover, the GI50 in assay [13] is 32.1 µM (inactive); in [14] it was 27.9 µM (inactive); in assay [15] it was 82.8 µM (inactive); in assay [16], 41.7 µM (inactive); in [17] it was 52.4 µM (inactive); in assay [18] it was 60.3 µM (inactive). The GI50 in assay [19] is 16.7 µM (inactive); in assay [20], 38 µM (inactive).

With `CN(C)c1cccc(F)c1C(=O)NC(=O)Nc1ccc(Cl)cc1`, the GI50 in assay [1] was 2.98 µM (inactive); in assay [2], 5.48 µM (inactive); in assay [3] it was 8.95 µM (inactive); in assay [4], 2.21 µM (inactive); in [5], 4.29 µM (inactive); in assay [6] it was 5.2 µM (inactive). Moreover, the GI50 in [7] is 0.479 µM (active); in assay [8] it was 0.142 µM (active); in assay [9] it was 6.34 µM (inactive); in assay [10], 1.91 µM (inactive); in assay [11], 3.21 µM (inactive); in assay [12], 2.09 µM (inactive). Besides, the GI50 was 5.19 µM (inactive) in [13]; 2.83 µM (inactive) in assay [14]; 3.15 µM (inactive) in [15]; 17.6 µM (inactive) in assay [16]; 2.29 µM (inactive) in assay [17]; 3.75 µM (inactive) in assay [18]. For the same compound, the GI50 in assay [19] was 2.4 µM (inactive); in assay [20] it was 3.42 µM (inactive).

In the case of `CCN(CC)c1c(N(CC)CC)c(=O)c1=O`, the GI50 in [1] was 5.35 µM (inactive); in assay [2] it was 22.5 µM (inactive); in [3] it was 19.1 µM (inactive); in assay [4] it was 2.63 µM (inactive); in assay [5], 14.9 µM (inactive); in assay [6], 29.9 µM (inactive). Besides, the GI50 is 6.12 µM (inactive) in [7]; 16.3 µM (inactive) in assay [8]; 10.6 µM (inactive) in assay [9]; 39.5 µM (inactive) in [10]; 24.4 µM (inactive) in assay [11]; 9.71 µM (inactive) in assay [12]. For the same compound, the GI50 in [13] was 10.3 µM (inactive); in assay [14] it was 17.9 µM (inactive); in [15] it was 8.05 µM (inactive); in assay [16], 17.4 µM (inactive); in assay [17], 22.5 µM (inactive); in [18] it was > 100 µM (inactive). Further, the GI50 was 30.3 µM (inactive) in [19] and 9.48 µM (inactive) in assay [20].

Consider `CS(=O)(=O)OC1CCN(C2(c3cccc(O)c3)CCCCC2)CC1`, for which the GI50 is 27.4 µM (inactive) in [1]; > 100 µM (inactive) in assay [2]; 46.2 µM (inactive) in assay [3]; 32.6 µM (inactive) in [4]; 92.7 µM (inactive) in [5]; 36.1 µM (inactive) in [6]. The GI50 in assay [7] was 39.6 µM (inactive); in assay [8] it was 30.5 µM (inactive); in assay [9], 46.5 µM (inactive); in assay [10] it was 48.5 µM (inactive); in [11] it was 48.1 µM (inactive); in assay [12], > 100 µM (inactive). In addition, the GI50 in [13] is 57.7 µM (inactive); in [14] it was 33.6 µM (inactive); in assay [15], 27.4 µM (inactive); in assay [16], 60.4 µM (inactive); in assay [17] it was > 100 µM (inactive); in assay [18], 37 µM (inactive). The GI50 is > 100 µM (inactive) in assay [19] and 38.4 µM (inactive) in [20].
